Laboratory results: US6355799B1, “Substituted benzene compounds, process for their preparation, and herbicidal and defoliant compositions containing them” (ISK Americas Incorporated, priority 1997, dated 2002)

How the values were obtained:
Format in all cases: in vivo
[1] = test system: redroot pigweed (Amaranthus retroflexus, AMARE); experiment: Pre-emerge test, greenhouse herbicide activity screening; settings: rated 14 days after application, 0 = no damage, 100 = complete death
Method in brief: (§1)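 Rating: 0–100 visual injury, 14 DAA. Application: acetone, 187 l/ha, 15–1000 g ai/ha, flat-fan track sprayer with nozzle 40–45 cm above soil or canopy. Post-emerge runs used 0.25% v/v surfactant on 2–3 leaf plants.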

[2] = test system: barnyardgrass (Echinochloa crus-galli, ECHCG); experiment: as above; settings: rated 14 days after application, 0 = no damage, 100 = complete death
Method in brief: (§2)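 Compounds in acetone were track-sprayed at 15–1000 g ai/ha: pre-emergence onto soil sown the previous day, then top-watered to incorporate and later bottom-watered; post-emergence onto 2–3 leaf plants with 0.25% v/v surfactant, bottom-watered only. Ratings on a 0–100 phytotoxicity scale were taken at day 14.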

[3] = test system: green foxtail (Setaria viridis, SETVI); experiment: as above; settings: rated 14 days after application, 0 = no damage, 100 = complete death
Method in brief: as §2

[4] = test system: ivyleaf morningglory (Ipomoea hederacea, IPOHE); experiment: as above; settings: rated 14 days after application, 0 = no damage, 100 = complete death
Method in brief: as §2

[5] = test system: johnsongrass (Sorghum halepense, SORHA); experiment: as above; settings: rated 14 days after application, 0 = no damage, 100 = complete death
Method in brief: as §2

[6] = test system: lambsquarters (Chenopodium album, CHEAL); experiment: as above; settings: rated 14 days after application, 0 = no damage, 100 = complete death
Method in brief: as §2

[7] = test system: large crabgrass (Digitaria sanguinalis, DIGSA); experiment: as above; settings: rated 14 days after application, 0 = no damage, 100 = complete death
Method in brief: as §2

[8] = test system: sicklepod (Cassia obtusifolia, CASOB); experiment: as above; settings: rated 14 days after application, 0 = no damage, 100 = complete death
Method in brief: as §2

[9] = test system: velvetleaf (Abutilon theophrasti, ABUTH); experiment: as above; settings: rated 14 days after application, 0 = no damage, 100 = complete death
Method in brief: as §2

[10] = test system: field corn (Zea mays L., var. Dekalb 535, CORN); experiment: Pre-emerge test, crop safety; settings: rated 14 days after application, 0 = no damage, 100 = complete death
Method in brief: as §1

[11] = test system: upland rice (Oryza sp., var. Tebonnet, RICE); experiment: Pre-emerge test, crop safety; settings: rated 14 days after application, 0 = no damage, 100 = complete death
Method in brief: as §1

[12] = test system: barnyardgrass (Echinochloa crus-galli, ECHCG); experiment: Post-emerge test, greenhouse herbicide activity screening; settings: post-emerge, 14 days after application, rating scale 0-100
Method in brief: as §1

[13] = test system: green foxtail (Setaria viridis, SETVI); experiment: as above; settings: post-emerge, 14 days after application, rating scale 0-100
Method in brief: as §1

[14] = test system: ivyleaf morningglory (Ipomoea hederacea, IPOHE); experiment: as above; settings: post-emerge, 14 days after application, rating scale 0-100
Method in brief: as §1

[15] = test system: johnsongrass (Sorghum halepense, SORHA); experiment: as above; settings: post-emerge, 14 days after application, rating scale 0-100
Method in brief: as §1

[16] = test system: lambsquarters (Chenopodium album, CHEAL); experiment: as above; settings: post-emerge, 14 days after application, rating scale 0-100
Method in brief: as §1

[17] = test system: large crabgrass (Digitaria sanguinalis, DIGSA); experiment: as above; settings: post-emerge, 14 days after application, rating scale 0-100
Method in brief: as §1

[18] = test system: redroot pigweed (Amaranthus retroflexus, AMARE); experiment: as above; settings: post-emerge, 14 days after application, rating scale 0-100
Method in brief: as §1

[19] = test system: sicklepod (Cassia obtusifolia, CASOB); experiment: as above; settings: post-emerge, 14 days after application, rating scale 0-100
Method in brief: as §1

[20] = test system: velvetleaf (Abutilon theophrasti, ABUTH); experiment: as above; settings: post-emerge, 14 days after application, rating scale 0-100
Method in brief: as §1

[21] = test system: field corn (Zea mays L., var. Dekalb 535, CORN); experiment: Post-emerge test, crop safety; settings: post-emerge, 14 days after application, rating scale 0-100
Method in brief: as §1

[22] = test system: upland rice (Oryza sp., var. Tebonnet, RICE); experiment: Post-emerge test, crop safety; settings: post-emerge, 14 days after application, rating scale 0-100
Method in brief: as §1

COc1c(Cl)cc(F)c(-n2c(=O)cc(C(F)(F)F)n(N)c2=O)c1NC(=O)c1ccc2ccccc2c1 [2-77]
Pre-emerge Herbicidal Activity, phytotoxicity rating (0-100), AMARE ([1]; 63 g ai/ha): 70 | Pre-emerge Herbicidal Activity, phytotoxicity rating (0-100), AMARE ([1]; 250 g ai/ha): 100 | Pre-emerge Herbicidal Activity, phytotoxicity rating (0-100), ECHCG ([2]; 63 g ai/ha): 0 | Pre-emerge Herbicidal Activity, phytotoxicity rating (0-100), ECHCG ([2]; 250 g ai/ha): 0 | Pre-emerge Herbicidal Activity, phytotoxicity rating (0-100), SETVI ([3]; 63 g ai/ha): 0 | Pre-emerge Herbicidal Activity, phytotoxicity rating (0-100), SETVI ([3]; 250 g ai/ha): 60 | Pre-emerge Herbicidal Activity, phytotoxicity rating (0-100), IPOHE ([4]; 63 g ai/ha): 0 | Pre-emerge Herbicidal Activity, phytotoxicity rating (0-100), IPOHE ([4]; 250 g ai/ha): 30 | Pre-emerge Herbicidal Activity, phytotoxicity rating (0-100), SORHA ([5]; 63 g ai/ha): 0 | Pre-emerge Herbicidal Activity, phytotoxicity rating (0-100), SORHA ([5]; 250 g ai/ha): 0 | Pre-emerge Herbicidal Activity, phytotoxicity rating (0-100), CHEAL ([6]; 63 g ai/ha): 90 | Pre-emerge Herbicidal Activity, phytotoxicity rating (0-100), CHEAL ([6]; 250 g ai/ha): 100 | Pre-emerge Herbicidal Activity, phytotoxicity rating (0-100), DIGSA ([7]; 63 g ai/ha): 0 | Pre-emerge Herbicidal Activity, phytotoxicity rating (0-100), DIGSA ([7]; 250 g ai/ha): 30 | Pre-emerge Herbicidal Activity, phytotoxicity rating (0-100), CASOB ([8]; 63 g ai/ha): 0 | Pre-emerge Herbicidal Activity, phytotoxicity rating (0-100), CASOB ([8]; 250 g ai/ha): 30 | Pre-emerge Herbicidal Activity, phytotoxicity rating (0-100), ABUTH ([9]; 63 g ai/ha): 30 | Pre-emerge Herbicidal Activity, phytotoxicity rating (0-100), ABUTH ([9]; 250 g ai/ha): 100 | Pre-emerge phytotoxicity rating (0-100), crop damage, CORN ([10]; 63 g ai/ha): 0 | Pre-emerge phytotoxicity rating (0-100), crop damage, CORN ([10]; 250 g ai/ha): 0 | Pre-emerge phytotoxicity rating (0-100), crop damage, RICE ([11]; 63 g ai/ha): 0 | Pre-emerge phytotoxicity rating (0-100), crop damage, RICE ([11]; 250 g ai/ha): 20 | phytotoxicity rating ECHCG ([12]; 63 g ai/ha): 0 | phytotoxicity rating ECHCG ([12]; 250 g ai/ha): 0 | phytotoxicity rating SETVI ([13]; 63 g ai/ha): 0 | phytotoxicity rating SETVI ([13]; 250 g ai/ha): 0 | phytotoxicity rating IPOHE ([14]; 63 g ai/ha): 60 | phytotoxicity rating IPOHE ([14]; 250 g ai/ha): 95 | phytotoxicity rating SORHA ([15]; 63 g ai/ha): 0 | phytotoxicity rating SORHA ([15]; 250 g ai/ha): 0 | phytotoxicity rating CHEAL ([16]; 63 g ai/ha): 100 | phytotoxicity rating CHEAL ([16]; 250 g ai/ha): 80 | phytotoxicity rating DIGSA ([17]; 63 g ai/ha): 0 | phytotoxicity rating DIGSA ([17]; 250 g ai/ha): 0 | phytotoxicity rating AMARE ([18]; 63 g ai/ha): 10 | phytotoxicity rating AMARE ([18]; 250 g ai/ha): 100 | phytotoxicity rating CASOB ([19]; 63 g ai/ha): 40 | phytotoxicity rating CASOB ([19]; 250 g ai/ha): 100 | phytotoxicity rating ABUTH ([20]; 63 g ai/ha): 100 | phytotoxicity rating ABUTH ([20]; 250 g ai/ha): 100 | phytotoxicity rating CORN ([21]; 63 g ai/ha): 0 | phytotoxicity rating CORN ([21]; 250 g ai/ha): 10 | phytotoxicity rating RICE ([22]; 63 g ai/ha): 20 | phytotoxicity rating RICE ([22]; 250 g ai/ha): 40

COc1c(Cl)cc(F)c(-n2c(=O)cc(C(F)(F)F)n(C)c2=O)c1NC(=O)C=Cc1ccccc1 [2-78]
Pre-emerge Herbicidal Activity, phytotoxicity rating (0-100), AMARE ([1]; 63 g ai/ha): 100 | Pre-emerge Herbicidal Activity, phytotoxicity rating (0-100), AMARE ([1]; 250 g ai/ha): 100 | Pre-emerge Herbicidal Activity, phytotoxicity rating (0-100), ECHCG ([2]; 63 g ai/ha): 10 | Pre-emerge Herbicidal Activity, phytotoxicity rating (0-100), ECHCG ([2]; 250 g ai/ha): 100 | Pre-emerge Herbicidal Activity, phytotoxicity rating (0-100), SETVI ([3]; 63 g ai/ha): 90 | Pre-emerge Herbicidal Activity, phytotoxicity rating (0-100), SETVI ([3]; 250 g ai/ha): 100 | Pre-emerge Herbicidal Activity, phytotoxicity rating (0-100), IPOHE ([4]; 63 g ai/ha): 20 | Pre-emerge Herbicidal Activity, phytotoxicity rating (0-100), IPOHE ([4]; 250 g ai/ha): 100 | Pre-emerge Herbicidal Activity, phytotoxicity rating (0-100), SORHA ([5]; 63 g ai/ha): 10 | Pre-emerge Herbicidal Activity, phytotoxicity rating (0-100), SORHA ([5]; 250 g ai/ha): 80 | Pre-emerge Herbicidal Activity, phytotoxicity rating (0-100), CHEAL ([6]; 63 g ai/ha): 100 | Pre-emerge Herbicidal Activity, phytotoxicity rating (0-100), CHEAL ([6]; 250 g ai/ha): 100 | Pre-emerge Herbicidal Activity, phytotoxicity rating (0-100), DIGSA ([7]; 63 g ai/ha): 30 | Pre-emerge Herbicidal Activity, phytotoxicity rating (0-100), DIGSA ([7]; 250 g ai/ha): 100 | Pre-emerge Herbicidal Activity, phytotoxicity rating (0-100), CASOB ([8]; 63 g ai/ha): 100 | Pre-emerge Herbicidal Activity, phytotoxicity rating (0-100), CASOB ([8]; 250 g ai/ha): 100 | Pre-emerge Herbicidal Activity, phytotoxicity rating (0-100), ABUTH ([9]; 63 g ai/ha): 100 | Pre-emerge Herbicidal Activity, phytotoxicity rating (0-100), ABUTH ([9]; 250 g ai/ha): 100 | Pre-emerge phytotoxicity rating (0-100), crop damage, CORN ([10]; 63 g ai/ha): 0 | Pre-emerge phytotoxicity rating (0-100), crop damage, CORN ([10]; 250 g ai/ha): 10 | Pre-emerge phytotoxicity rating (0-100), crop damage, RICE ([11]; 63 g ai/ha): 40 | Pre-emerge phytotoxicity rating (0-100), crop damage, RICE ([11]; 250 g ai/ha): 95 | phytotoxicity rating ECHCG ([12]; 63 g ai/ha): 10 | phytotoxicity rating ECHCG ([12]; 250 g ai/ha): 10 | phytotoxicity rating SETVI ([13]; 63 g ai/ha): 30 | phytotoxicity rating SETVI ([13]; 250 g ai/ha): 30 | phytotoxicity rating IPOHE ([14]; 63 g ai/ha): 80 | phytotoxicity rating IPOHE ([14]; 250 g ai/ha): 100 | phytotoxicity rating SORHA ([15]; 63 g ai/ha): 0 | phytotoxicity rating SORHA ([15]; 250 g ai/ha): 10 | phytotoxicity rating CHEAL ([16]; 63 g ai/ha): 100 | phytotoxicity rating CHEAL ([16]; 250 g ai/ha): 100 | phytotoxicity rating DIGSA ([17]; 63 g ai/ha): 0 | phytotoxicity rating DIGSA ([17]; 250 g ai/ha): 0 | phytotoxicity rating AMARE ([18]; 63 g ai/ha): 100 | phytotoxicity rating AMARE ([18]; 250 g ai/ha): 100 | phytotoxicity rating CASOB ([19]; 63 g ai/ha): 70 | phytotoxicity rating CASOB ([19]; 250 g ai/ha): 100 | phytotoxicity rating ABUTH ([20]; 63 g ai/ha): 100 | phytotoxicity rating ABUTH ([20]; 250 g ai/ha): 100 | phytotoxicity rating CORN ([21]; 63 g ai/ha): 25 | phytotoxicity rating CORN ([21]; 250 g ai/ha): 30 | phytotoxicity rating RICE ([22]; 63 g ai/ha): 50 | phytotoxicity rating RICE ([22]; 250 g ai/ha): 65
